In patent US7338778B2, “Luminescent method for determining cell oxygen consumption” (Becton, Dickinson and Company, priority 1991, dated 2008):

How the values were obtained:
[1] = tested on: Pseudomonas aeruginosa (ATCC #10145); details: 1.5×10^8 CFU/ml, 37° C., times less than two hours
Experimental: A suspension containing about 3×10^8 CFU/ml, of Pseudomonas aeruginosa (ATCC #10145) in Broth A was prepared using an A-Just nephelometer. A total of 150 ul of the suspension was placed in each well of the indicator trays prepared as in Example 1; these suspensions were then diluted with solutions of phenol or copper sulfate (which are deleterious to microbial growth) to a final concentration of 1.5×10^8 CFU/ml. The trays were incubated at 37° C. and their fluorescence measured in a Fluoroskan II at 10 minute intervals.

[2] = tested on: HL60 cells; experiment: Cytotoxicity assay in oxygen sensor plates; format: cell-based; details: Homo sapiens, HL-60, HL60 cells, read-out: IC50 O2 Sensor
Experimental: Oxygen sensor plates were prepared by the general methods described herein. Falcon 1177 polystyrene 96 well U-bottom plates (BD Labware) were used for all experiments. The fluorescent dye Ru(DPP)3Cl2 was adsorbed to silica gel by rotary evaporation of ethanolic solutions of the dye with the silica gel. The adsorbed dye-silica and a moisture-cure clear silicone were mixed manually and immediately applied to plate wells with approximately 17 uL silicone per well. These were cured for 2-3 days in a controlled humidity incubator.
All data was obtained with a BMG Polarstar fluorimeter at 37° C. using the bottom plate reading configuration. The bandpass filters were 465 nm for excitation and 590 nm for emission. For the experiments with […]®, a Cytofluor 4000 fluorometer was used with a 485 nm excitation filter and a 580 nm emission filter. Data was read at selected time intervals. Normalized fluorescence data was generally obtained by dividing well values at selected time points by the same well's initial reading with only media or buffer present prior to adding cells.
Cells used for cytotoxicity and quantitation experiments (HL60, U937; ATCC) were grown in tissue culture media recommended by the supplier (RPMI; Gibco and ATCC, respectively). The media was supplemented with either 20% fetal bovine serum (Hyclone) for the HL60 cells or 10% FBS for the U937 cells, with the addition of penicillin, streptomycin and fungizone (Gibco) to prevent microbial contamination. Cells were maintained in a tissue culture incubator (37° C., 5% CO2, 95% humidity) during all experiments between readings.
HL60 cells (human promyelocytic leukemia cell line, ATCC #45500) were grown in tissue culture media recommended by the supplier (RPMI; Gibco), supplemented with 20% fetal bovine serum, heat inactivated at 50° C. for thirty minutes with the addition of penicillin, streptomycin and fungizone (Gibco) to prevent microbial contamination. Cells were maintained in tissue culture incubator (37° C., 5% CO2, 95% humidity) during all experiments. Fluorescence of the oxygen sensor was read on a Polarstar™ fluorometer (BMG), using 465 nm excitation and 590 nm emission filters.
100 uL of tissue culture media was aliquoted into the wells of the Oxygen sensor plate and plate was allowed to equilibrate in the tissue culture incubator for 1 hour prior to taking the initial reading. This reading was used to normalize all subsequent readings to account for well to well variability. Cells were resuspended in fresh media at 960,000 cells/mi. Serial 1:2 dilution of this stock was performed and 100 uL of each dilution was alliquoted across the length of the plate in replicates of 12 (rows B-H), with final cell/well number from 1,500 to 96,000. In row A, 100 uL of tissue culture media was alliquoted into the wells in lieu of cells (no-cells control). Fluorescence measurements were taken every 24 hours over 5 days. The actual number of cells present was counted with a hemocytometer by sampling the parallel well (same seeding cell number). Mean fluorescence from 5 wells per data point (n=5) was plotted against the counted cell number (FIG. 10). Error bars are standard deviation of the mean.
The experiment was performed as described in Example 18, with the following exceptions. Serial dilutions of vinblastine were prepared at twice the final concentration (100 nM to 0.1 nM) in tissue culture media.100 uL of the drug dilution in tissue culture media was aliquoted across the width of the plate in replicates of five, reserving one column for no-drug (media only) control. After an initial reading, a constant number of cells (200,000/well) in 100 uL media were added to each well of rows A-E of the oxygen sensor plate, reserving rows F-H for no-cells control. Fluorescence was read at the indicated times. Mean fluorescence from 5 wells per data point (n=5) was plotted against vinblastine concentration (FIG. 12).

[3] = tested on: HL60 cells; experiment: Cytotoxicity assay by MTT; format: cell-based; details: Homo sapiens, HL-60, HL60 cells, read-out: IC50 MTT
Experimental: In parallel with the oxygen sensor assays, MTT assays were performed using a Cell Titer Kit™ (Promega), as in Example 20, with the following exceptions. For each time point (corresponding to oxygen sensor assay time point), one flat-bottom 96 well microtiter plate (Falcon) was used. 50 uL of drug dilution in tissue culture media was used for initial reading and cells were suspended in 50 uL media, to the final volume of 100 uL. At indicated time points, 10 uL of MTT reagent was added per well for 1 hour, after which 100 uL of the stop/lysis buffer was added. Plates were sealed with Parafilm™ and cell lysis occurred overnight. Absorbance (570 nm corrected by absorbance at 750 nm) was read using a Thermomax Microplate Reader (Molecular Devices). Mean absorbance from 5 wells per data point, with standard deviation as error bars, was plotted against vinblastine concentration (FIG. 13).
These experiments was performed as described in Example 20, with the exception that appropriate dilutions of the above reagents were substituted for vinblastine: 0.01 nM to 10000 nM methotrexate, 0.00001 to 10 mM sodium azide, and 2 to 2000 uM SDS respectively.

Compound | concentration at which wells had no increase in fluorescence signal (absence of actively metabolizing organisms) [1] | IC50 ([2]; 96 hours) [nM] | IC50 ([2]; 120 hours) [nM] | IC50 ([3]; 120 hours) [nM] | IC50 ([2]; 48 hours) [nM] | IC50 ([2]; 72 hours) [nM] | IC50 ([3]; 48 hours) [nM] | IC50 ([3]; 72 hours) [nM] | IC50 ([3]; 96 hours) [nM]
Oc1ccccc1 [phenol] | ≥ 1 gram/liter |  |  |  |  |  |  |  | 
CN(Cc1cnc2nc(N)nc(N)c2n1)c1ccc(C(=O)N[C@@H](CCC(=O)O)C(=O)O)cc1 [Methotrexate, methotrexate] |  | 19 | 12 | 14 |  |  |  |  | 
O=S(=O)([O-])[O-].[Cu+2] [copper sulfate] | greater than 500 mg/liter |  |  |  |  |  |  |  | 
CC[C@]1(O)C[C@@H]2CN(CCc3c([nH]c4ccccc34)[C@@](C(=O)OC)(c3cc4c(cc3OC)N(C)[C@H]3[C@@](O)(C(=O)OC)[C@H](OC(C)=O)[C@]5(CC)C=CCN6CC[C@]43[C@@H]65)C2)C1 [Vinblastine, vinblastine] |  | 9 | 9 | 6.4 | 11 | 11 | 9 | 8 | 7
